Laboratory results reported in ChEMBL document CHEMBL4043168, “The design and SAR of a novel series of 2-aminopyridine based LRRK2 inhibitors” (Bioorg Med Chem Lett, 2017).

How the values were obtained:
[1] = molecular target: Serine/threonine-protein kinase 25 (Homo sapiens) (UniProt O00506); test: Inhibition of YSK1 conserved Lys2 (DIKAANVLLSEQGDVK) in human PBMC at 1 uM
[2] = molecular target: T1, Inhibitor of nuclear factor kappa-B kinase subunit epsilon (Homo sapiens) (UniProt Q14164); test: Inhibition of IKKe conserved Lys2 (DIKPGNIMR) in human PBMC at 0.1 uM
T1 sequence (whole entry): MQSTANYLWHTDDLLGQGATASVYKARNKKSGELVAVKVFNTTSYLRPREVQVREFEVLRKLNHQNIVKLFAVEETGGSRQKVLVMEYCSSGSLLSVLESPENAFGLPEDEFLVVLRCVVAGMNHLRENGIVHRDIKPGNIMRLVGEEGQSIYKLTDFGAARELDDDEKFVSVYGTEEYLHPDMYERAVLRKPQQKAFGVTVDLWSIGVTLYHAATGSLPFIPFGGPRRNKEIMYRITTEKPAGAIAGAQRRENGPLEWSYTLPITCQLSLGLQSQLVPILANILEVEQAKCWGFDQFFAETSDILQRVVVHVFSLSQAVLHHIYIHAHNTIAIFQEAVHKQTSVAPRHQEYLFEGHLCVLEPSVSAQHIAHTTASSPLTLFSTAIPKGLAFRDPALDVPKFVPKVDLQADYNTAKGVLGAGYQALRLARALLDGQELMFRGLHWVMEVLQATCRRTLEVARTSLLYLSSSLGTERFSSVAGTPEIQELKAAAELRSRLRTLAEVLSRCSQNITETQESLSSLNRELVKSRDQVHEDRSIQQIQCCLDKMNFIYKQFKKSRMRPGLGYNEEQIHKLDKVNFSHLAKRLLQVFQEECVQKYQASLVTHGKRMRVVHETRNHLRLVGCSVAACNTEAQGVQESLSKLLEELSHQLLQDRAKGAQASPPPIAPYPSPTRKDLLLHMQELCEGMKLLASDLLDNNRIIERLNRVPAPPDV

[3] = molecular target: Tyrosine-protein kinase Fgr (Homo sapiens) (UniProt P09769); test: Inhibition of FGR conserved Lys1 (LIKDDEYNPCQGSKFPIK) in human PBMC at 1 uM
[4] = molecular target: G protein-coupled receptor kinase 6 (Homo sapiens) (UniProt P43250); test: Inhibition of GPRK6 conserved Lys2 (DLKPENILLDDHGHIR) in human PBMC at 1 uM
[5] = molecular target: Cyclin-dependent kinase 2 (Homo sapiens) (UniProt P24941); test: Inhibition of CDK2 labeling at conserved Lys1 (LTGEVVALKK) in human PBMC at 0.1 uM
[6] = molecular target: Protein kinase C alpha type (Homo sapiens) (UniProt P17252); test: Inhibition of PKCa conserved Lys2 (DLKLDNVMLDSEGHIK) in human PBMC at 1 uM
[7] = molecular target: T2, Mitogen-activated protein kinase kinase kinase 6 (Homo sapiens) (UniProt O95382); test: Inhibition of MAP3K6 conserved Lys1 (IAIKEIPER) in human PBMC at 0.1 uM
T2 sequence (whole entry): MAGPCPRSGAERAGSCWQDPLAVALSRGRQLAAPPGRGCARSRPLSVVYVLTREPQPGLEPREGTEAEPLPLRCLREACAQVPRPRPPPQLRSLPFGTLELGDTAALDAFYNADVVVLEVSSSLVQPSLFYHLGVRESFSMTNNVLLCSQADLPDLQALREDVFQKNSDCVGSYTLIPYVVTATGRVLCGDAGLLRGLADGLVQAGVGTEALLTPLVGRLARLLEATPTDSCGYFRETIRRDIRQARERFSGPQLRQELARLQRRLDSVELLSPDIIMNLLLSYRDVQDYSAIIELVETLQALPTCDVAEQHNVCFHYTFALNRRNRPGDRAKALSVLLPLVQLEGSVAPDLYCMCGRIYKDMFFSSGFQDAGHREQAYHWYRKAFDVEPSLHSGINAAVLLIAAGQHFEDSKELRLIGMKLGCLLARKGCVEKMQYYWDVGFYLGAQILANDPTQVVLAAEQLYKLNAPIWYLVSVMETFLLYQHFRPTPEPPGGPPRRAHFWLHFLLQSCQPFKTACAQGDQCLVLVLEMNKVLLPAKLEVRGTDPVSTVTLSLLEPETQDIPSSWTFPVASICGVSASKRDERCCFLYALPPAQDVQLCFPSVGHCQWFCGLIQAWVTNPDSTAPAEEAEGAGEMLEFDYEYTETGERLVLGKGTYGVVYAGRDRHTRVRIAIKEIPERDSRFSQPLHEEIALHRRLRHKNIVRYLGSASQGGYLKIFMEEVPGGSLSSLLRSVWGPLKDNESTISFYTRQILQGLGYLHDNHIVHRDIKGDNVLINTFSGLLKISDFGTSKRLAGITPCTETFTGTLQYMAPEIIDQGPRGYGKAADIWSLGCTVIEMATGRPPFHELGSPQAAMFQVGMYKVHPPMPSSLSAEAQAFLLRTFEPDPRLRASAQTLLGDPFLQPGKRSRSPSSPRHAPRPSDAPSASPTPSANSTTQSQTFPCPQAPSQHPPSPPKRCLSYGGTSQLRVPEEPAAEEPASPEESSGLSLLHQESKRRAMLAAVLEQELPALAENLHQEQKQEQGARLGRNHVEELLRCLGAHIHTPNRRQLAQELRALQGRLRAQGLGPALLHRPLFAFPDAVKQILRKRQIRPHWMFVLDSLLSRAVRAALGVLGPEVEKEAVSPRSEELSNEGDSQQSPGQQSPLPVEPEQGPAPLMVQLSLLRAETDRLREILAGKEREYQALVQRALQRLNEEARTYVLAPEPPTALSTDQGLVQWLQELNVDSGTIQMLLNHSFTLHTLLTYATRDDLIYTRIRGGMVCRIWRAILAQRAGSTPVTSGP

[8] = molecular target: Calcium/calmodulin-dependent protein kinase type II subunit gamma (Homo sapiens) (UniProt Q13555); test: Inhibition of CaMK2g labeling at conserved Lys2 (DLKPENLLLASK) in human PBMC at 1 uM
Chain of Calcium/calmodulin-dependent protein kinase type II subunit gamma (Homo sapiens) (Q13555 whole entry): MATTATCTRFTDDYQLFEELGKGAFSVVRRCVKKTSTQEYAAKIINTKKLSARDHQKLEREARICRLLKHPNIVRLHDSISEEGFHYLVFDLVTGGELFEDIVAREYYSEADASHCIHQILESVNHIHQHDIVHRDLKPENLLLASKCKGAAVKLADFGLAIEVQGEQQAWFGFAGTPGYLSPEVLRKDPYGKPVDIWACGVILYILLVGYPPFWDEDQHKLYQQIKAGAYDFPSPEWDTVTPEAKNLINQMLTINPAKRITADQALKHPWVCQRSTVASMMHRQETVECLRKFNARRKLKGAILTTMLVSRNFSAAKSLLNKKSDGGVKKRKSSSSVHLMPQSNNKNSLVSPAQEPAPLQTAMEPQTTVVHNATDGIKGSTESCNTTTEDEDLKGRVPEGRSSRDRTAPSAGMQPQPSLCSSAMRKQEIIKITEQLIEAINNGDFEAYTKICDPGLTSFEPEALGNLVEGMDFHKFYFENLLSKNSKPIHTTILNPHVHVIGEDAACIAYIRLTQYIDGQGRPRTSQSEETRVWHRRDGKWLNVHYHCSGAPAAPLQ

Chain of Serine/threonine-protein kinase 25 (Homo sapiens) (O00506 whole entry, looked up): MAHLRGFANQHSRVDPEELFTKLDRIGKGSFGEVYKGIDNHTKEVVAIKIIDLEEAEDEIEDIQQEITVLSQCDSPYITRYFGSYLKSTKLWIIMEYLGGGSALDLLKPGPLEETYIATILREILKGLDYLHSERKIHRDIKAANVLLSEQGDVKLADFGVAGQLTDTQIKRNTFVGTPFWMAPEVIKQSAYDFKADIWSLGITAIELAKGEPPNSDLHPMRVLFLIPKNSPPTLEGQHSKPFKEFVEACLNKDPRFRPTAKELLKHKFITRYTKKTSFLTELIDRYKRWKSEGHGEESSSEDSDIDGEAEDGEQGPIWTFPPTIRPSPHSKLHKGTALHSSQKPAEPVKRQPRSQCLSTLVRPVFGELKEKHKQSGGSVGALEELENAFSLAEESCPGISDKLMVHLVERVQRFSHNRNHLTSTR
Chain of Tyrosine-protein kinase Fgr (Homo sapiens) (P09769 2-529 limits assumed): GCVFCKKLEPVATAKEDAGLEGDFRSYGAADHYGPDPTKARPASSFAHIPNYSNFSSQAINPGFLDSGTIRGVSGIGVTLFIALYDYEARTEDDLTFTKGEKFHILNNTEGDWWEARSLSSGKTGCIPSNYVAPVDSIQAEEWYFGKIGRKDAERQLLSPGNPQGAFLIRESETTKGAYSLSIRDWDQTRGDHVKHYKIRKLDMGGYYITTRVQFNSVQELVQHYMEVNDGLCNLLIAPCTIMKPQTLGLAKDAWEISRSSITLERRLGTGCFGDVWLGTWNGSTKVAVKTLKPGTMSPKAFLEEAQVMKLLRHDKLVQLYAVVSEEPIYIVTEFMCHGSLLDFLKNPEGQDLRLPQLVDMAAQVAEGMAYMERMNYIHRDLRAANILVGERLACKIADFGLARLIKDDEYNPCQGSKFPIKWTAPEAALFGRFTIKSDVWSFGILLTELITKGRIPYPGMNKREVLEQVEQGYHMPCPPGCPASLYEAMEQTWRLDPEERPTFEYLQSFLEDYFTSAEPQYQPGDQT
Chain of G protein-coupled receptor kinase 6 (Homo sapiens) (P43250 whole entry, looked up): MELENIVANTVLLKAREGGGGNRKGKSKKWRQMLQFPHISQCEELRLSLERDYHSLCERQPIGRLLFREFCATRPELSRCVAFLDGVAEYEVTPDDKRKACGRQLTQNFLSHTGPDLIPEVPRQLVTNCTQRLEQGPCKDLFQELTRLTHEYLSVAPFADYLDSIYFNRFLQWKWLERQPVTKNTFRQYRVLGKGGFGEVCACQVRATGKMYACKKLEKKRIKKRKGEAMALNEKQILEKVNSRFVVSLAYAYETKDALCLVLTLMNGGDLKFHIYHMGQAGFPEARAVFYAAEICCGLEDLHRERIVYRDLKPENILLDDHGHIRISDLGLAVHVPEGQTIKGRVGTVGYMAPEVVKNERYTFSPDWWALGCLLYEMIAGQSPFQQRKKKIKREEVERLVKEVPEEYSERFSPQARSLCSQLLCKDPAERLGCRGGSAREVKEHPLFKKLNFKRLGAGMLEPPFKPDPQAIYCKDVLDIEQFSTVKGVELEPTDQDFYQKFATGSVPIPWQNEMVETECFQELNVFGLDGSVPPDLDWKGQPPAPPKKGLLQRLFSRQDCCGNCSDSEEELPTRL

CC(C)n1cc(-c2cc(-c3ccc(CN4CCOCC4)cc3)cnc2N)nn1
inhibition [1]: 9.9% | inhibition [2]: 21.7% | inhibition [3]: -8.4% | inhibition [4]: -10% | inhibition [5]: 23.4% | inhibition [6]: -7.4% | inhibition [7]: -0.5% | inhibition [8]: -0.4%
